Ends that are not written are not given here. * marks the point of attachment. FITC = O=C1OC2(c3ccc(O)cc3Oc3cc(O)ccc32)c2ccc(NC(=S)*)cc21
Assays:
HUVEC cells [1] = test: modified Boyden's chamber cell migration assay; type: cell-based, human; settings: toward 5% FBS, 6 h; other peptides 10 μM
Description: HUVEC cell migration was assessed using a modified Boyden's chamber assay, i.e., in Transwell cell culture chambers (Corning Life Sciences, Acton, Mass.). Briefly, polycarbonate filters with 8 μm pores were used to separate the upper and the lower chambers. Cells were added to the upper compartment at a density of 10,000 cells/100 μl in serum-free medium containing 0.5% BSA and incubated for 6 h. Directional migration (chemotaxis) in the lower chamber was induced by addition of medium containing 5% FBS to the lower chamber. Where indicated parstatin or other peptides were added to lower chamber.
Cells on the filters were fixed and stained. The non-migrated cells (cells in upper surface) were removed by wiping with cotton swabs. The cells on the lower surface were counted manually under microscope in six predetermined fields. Parstatin (1-41) attenuated chemotactic cell migration through microporous membrane in response to serum (FIG. 3C). When human parstatin was combined with 5% FBS, the number of migrated cells was reduced in concentration-dependent manner.

[2] = test system: Erk1/2 (p42/44 MAPK) in HUVEC cells; test: Erk1/2 phosphorylation immunoblot (MAP kinase pathway); type: cell-based, human; settings: pretreatment 1 h, 10 μM; stimulated by FBS, bFGF or VEGF
Description: The MAPK (Erk1/2, p42/44) cascade mediates mitogenesis. […] HUVEC cells were cultured in 35 mm tissue culture dishes. After reaching 80% confluency, cells were growth factor-starved and subsequently stimulated for 10 min with vehicle or indicated agents. In combination experiments, cells were pretreated with parstatin or other peptides for 10 to 60 min.
Attached cells were lysed with Laenmli sample buffer, resolved in 10% SDS-PAGE, and transferred to nitrocellulose membranes. Membranes were incubated with primary antibodies against phospho p42/44 mitogen-activated protein kinases (p-Erk1/2, New England Biolabs, UK) and p42/44 Erk1/2 (t-Erk1/2, New England Biolabs, UK). Membranes were then probed with secondary antibodies horseradish peroxidase-conjugated, and proteins were visualized by chemiluminescent detection.

HUVEC cells [3] = test: Matrigel capillary tube-like formation; type: cell-based, human; settings: 5% FBS, 18 h, parstatin (1-41) 0.3 to 10 μM, other peptides 10 μM
Description: Primary human umbilical vein endothelial cells (HUVEC cells) were obtained from freshly delivered umbilical cords from caesarean births and were grown in M199 medium with 20% fetal bovine serum (FBS) supplemented with endothelial cell growth supplement and heparin. One of the most specific tests for angiogenesis is the measurement of the ability of endothelial cells to form capillary-like structures (i.e., tube formation). Tube formation is a multi-step process involving cell adhesion, migration and differentiation. Tube formation can be enhanced by use of Matrigel or fibrin clots to coat plastic culture dishes and it is an accepted model of angiogenesis.
Matrigel™ (Becton Dickinson Labware, N.J., USA) is a mixture of basement membrane components extracted from the Englebreth-Holm-Swarm tumor. […] Matrigel™ (250 μl) was added to each well of a 24-well plate and allowed to polymerize. A suspension of 40,000 HUVEC cells in M199 medium containing 5% FBS was added into each well coated with Matrigel™.
Cells were treated with increasing concentrations of human parstatin (1-41), scrambled parstatin, or parstatin (24-41) fragment. After 18 hours of incubation, the medium was removed, and the cells were fixed and stained, and tube-like structures were quantitated.

[4] = test system: chick chorioallontoic membrane (CAM); type: in vivo; settings: 10 nmoles, 48 h
Description: The in vivo chick chorioallontoic membrane (CAM) angiogenesis model was used to evaluate the effect of parstatin (1-41) in angiogenesis. On incubation day 9 of fertilized chicken eggs, an O-ring (1 cm^2) was placed on the surface of the CAM and the vehicle or the indicated substances were placed inside this restricted area. After 48 h, CAMs were fixed in saline-buffered formalin, photographed, and analyzed using the Scion Image software (Scion Image Release Beta 4.0.2 software; Scion Corporation, Frederick, Md.). Image analysis was performed on at least 18 eggs for each group. Vessel number and length were evaluated by pixel counting, and the results expressed as mean percentage of control ±SE. Statistical analyses were performed using a Student's t test.

[5] = test system: corneas of Sprague-Dawley rats; test: corneal histopathology after chemical burn (vessels, neutrophils); type: in vivo, rat; settings: 2×100 μg, day 7
Description: After the above-described processes were performed, the rats were sacrificed (7 days) and the eyes were excised. All eyes were sectioned (4 μm) and stained with hematoxylin-eosin. Two independent pathologists, in a blinded manner, evaluated the microvessel density and the inflammatory cell infiltration in each slide. Total corneal vascular vessels and neutrophils were counted at 200× in seven representative stained tissue sections for each eye, covering all cornea area and having a similar distance from the central burn.

HUVEC cells [6] = test: Fibrin gel in vitro angiogenesis assay; type: cell-based, human; settings: VEGF/bFGF-induced, 24 h; other peptides 10 μM
Description: The ability of endothelial cells to form three-dimensional structures was analyzed using a Fibrin gel in vitro angiogenesis assay kit (Chemicon International Inc. Temecula, Calif.). Fibrin gels were formed in 48-well plates by mixing fibrinogen and thrombin solutions, according to manufacturer instructions. Cells (40,000 cells/well) were then added and cultured in medium containing 2% FBS for 18 h. After the addition of a second layer of fibrin gel, endothelial cells sandwiched within fibrin gels were cultured in serum-free medium containing 0.5% bovine serum albumin (BSA) and the combination of VEGF/bFGF for 24 h. Where indicated, parstatin (1-41) or other indicated peptides were added. Capillary-like network was photographed and measured.

caspase-3 in HUVEC cells = test: caspase-3 activity colorimetric assay; type: cell-based, human; settings: 0.5% BSA, 24 h; mouse and scrambled 10 μM
Description: To further support the involvement of caspases in parstatin (1-41) pro-apoptotic effect, its effect on caspase-3 activation was examined using a commercially available kit (Promega, Madison, Wis.). The colorimetric substrate, Ac-DEVD-p-nitroanilide, is cleaved by caspase-3 to release yellow p-nitroanilide, was measured by absorbance at 405 nm to detect caspase activation.
HUVEC cells were grown in 60 mm tissue culture plates until approximately 80% confluency. Cells were treated in absence or in presence of 0.5% BSA or bFGF for 24 h in serum-free medium. Suspended and adherent cells were collected and lysed. Caspase-3 activity was measured by absorbance at 405 nm.

HUVEC cells [7] = test: [3H]-thymidine incorporation (DNA synthesis); type: cell-based, human; settings: serum, bFGF or VEGF; comparison peptides 10 μM
Description: The ability of parstatin (1-41) to inhibit DNA synthesis of endothelial cells was assessed in thymidine incorporation assays. HUVEC cells were grown until 60-80% confluent in 24-well plates. Cells were treated with indicated peptides in serum-free medium containing either 0.5% BSA, or VEGF, or bFGF, or medium containing 5% FBS, or epidermal growth factor (EGF), or heparin-binging EGF (HB-EGF) for 18 hours. All cells were pulsed with 0.5 μCi/ml [3H]-thymidine (ICN Biomedicals Inc., Irvine Calif.) for additional 6 h. Radioactivity incorporated into DNA was determined in liquid scintillation counter.

HUVEC cells [8] = test: MTT cell proliferation assay; type: cell-based, human
Description: Cell proliferation was evaluated using a 3-(4,5-[…])-2,5-diphenyltetrazolium bromide (MTT, Sigma-Aldrich, St. Louis, Mo.) assay. Endothelial cells (10,000/well) were seeded in 24-well tissue culture plates and incubated with growth medium for 24 h. Cells were then treated with the vehicle or the indicated peptides in medium containing 5% FBS for 1 to 3 days. After 24, 48, or 72 hours, MTT solution (5 mg/ml) was added to each well and incubated for 3 h at 37° C. The blue formazan crystals were solubilized by addition of DMSO and absorbance at 450 nm was recorded using a 96-well plate reader.

HUVEC cells [9] = test: cellular uptake of FITC-labeled peptides by flow cytometry; type: cell-based, human; settings: 30 min exposure
Description: HUVEC cells in the exponential growth phase were exposed to various concentrations of parstatin (1-41)-FITC in serum-free medium containing 0.5% BSA. After incubation times ranging from 1 min to 60 min, cells were washed extensively. Washed cells were incubated for 10 min with trypsin at 37° C. to remove the cell surface-bound parstatin. Suspended cells were subsequently centrifuged, washed, and analyzed on FACS flow cytometer (EPICS XL-MCL; Coulter).
The uptake of a given parstatin (1-41)-FITC into cells was assessed by the change of the FITC-positive cell population compared with untreated control cell samples.

HUVEC cells [10] = test: cellular uptake by fluorescence microscopy; type: cell-based, human; settings: FITC-labeled peptide
Description: 4′,6-Diamidino-2-phenylindole (DAPI) was used to stain nuclei of all cells. Cell fluorescence was imaged on a Nikon Eclipse TE2000-U microscope. FITC and DAPI were excited using 490-nm and 360-nm filters, respectively. The emission signals were sorted out using 514 and 460 filters for the FITC and DAPI, respectively. HUVEC cells were treated with 10 μM of parstatin (1-41)-FITC for different time intervals. […] FITC signal was detected as early as 5 min of cell exposure to parstatin (1-41)-FITC (FIG. 9C).

| Substance | chemotactic cell migration (HUVEC cells [1]) | activation of Erk1/2 [2] | tube formation on Matrigel (HUVEC cells [3]) | inhibition of the basal level of angiogenesis in CAMs [4] | mean number (density) of vascular vessels per section [5] | numbers of neutrophils [5] [cells/corneal section] | capillary-like network (total capillary tube length) in fibrin gels (HUVEC cells [6]) | caspase-3 activity (caspase-3 in HUVEC cells) | DNA synthesis in HUVEC cells (HUVEC cells [7]) | HUVEC cell proliferation (HUVEC cells [8]; 10 μM) | tube formation on Matrigel (HUVEC cells [3]; listed as mouse parstatin (1-41)) | IC50 (HUVEC cells [8]; stimulus not given, read-out: half-maximal concentration, inhibiting cell proliferation) [µM] | fraction of FITC-positive cell population (HUVEC cells [9]) | cell fluorescence in microscope images (HUVEC cells [10]) |
| --- | --- | --- | --- | --- | --- | --- | --- | --- | --- | --- | --- | --- | --- | --- |
| LRTNASLLVPFLTARAKSSGTREAADPPRLMCLRPLARRCG (Scrambled synthetic peptide) [scrambled parstatin, reference compound] | without effect | did not alter | did not affect | did not cause any significant effect | 77.17±3.11 | 39±2.54 | did not affect | without effect | did not cause any significant effect | without effect |  |  |  |  |
| MGPRRLLIVALGLSLCGPLLSSRVPMSQPESERTDATVNPR [mouse parstatin, 1-41-amino acids cleaved N-terminal fragment of mouse PAR-1] | significant inhibitory effect, but to a lower extent | less pronounced effect | effective in inhibiting tube formation |  |  |  | less pronounced, but still significant, inhibitory effect | moderate increase | significant, but less effective inhibitory effect |  | less pronounced, but still significant, inhibitory effect | 20 |  |  |
| TRARRPESKATNATLDPRK-FITC (TRARRPESKATNATLDPRK(FITC); also: FITC linked to the C-terminal lysine; listed as Homo sapiens) [parstatin (24-41)-FITC, FITC conjugated to human parstatin (24-41) fragment] |  |  |  |  |  |  |  |  |  |  |  |  | minimal and comparable with that of control cells | no fluorescence was observed |

Reference: patent publication US9180163B2, “Parstatin peptides” (priority 2009, dated 2015)
